Laboratory results as given in ChEMBL document CHEMBL1158889, “Antineoplastic agents 500. Narcistatin” (J Nat Prod, 2003).
≈ marks a conversion by molar mass, not a printed value.

What was measured:
NCI-H460 = experiment: Cytotoxicity against human NCI-H460 cells; assay type: functional
P388 = experiment: Cytotoxicity against mouse P388 cells; assay type: functional; settings: for EC50: read-out: ED50 (the source's name)
MCF7 = experiment: Cytotoxicity against human MCF7 cells; assay type: functional
physchem = settings: aqueous (not further specified)
Description: Aqueous solubility of the compound

BXPC-3 = experiment: Cytotoxicity against human BxPC3 cells; assay type: functional
DU-145 = experiment: Cytotoxicity against human DU145 cells; assay type: functional
SF-268 = experiment: Cytotoxicity against human SF268 cells; assay type: functional
KM-20L2 = experiment: Cytotoxicity against human KM20L2 cells; assay type: functional
[1] = buffer
Description: Aqueous solubility of the compound

solubility [1] | Molecule | GI50 (NCI-H460) | EC50 (P388) | GI50 (MCF7) | solubility (physchem) | GI50 (BXPC-3) | GI50 (DU-145) | GI50 (SF-268) | GI50 (KM-20L2) | ED50 (P388)
– | O=C1N[C@@H]2C(=C[C@H](O)[C@H]3OP(=O)([O-])O[C@H]32)c2cc3c(c([O-])c21)OCO3.[Ca+2] [CALCIUM NARCISTATIN] | 0.12 µg/mL | 0.0223 µg/mL | 0.059 µg/mL | < 1000 µg/mL | 0.045 µg/mL | 0.0093 µg/mL | 0.031 µg/mL | 0.059 µg/mL | –
– | O=C1N[C@@H]2C(=C[C@H](O)[C@H]3OP(=O)([O-])O[C@H]32)c2cc3c(c(O)c21)OCO3.[Cs+] [CESIUM NARCISTATIN] | > 1 µg/mL | 0.183 µg/mL | 0.62 µg/mL | < 13000 µg/mL | 0.41 µg/mL | 0.13 µg/mL | 0.33 µg/mL | 0.66 µg/mL | –
– | O=C1N[C@@H]2C(=C[C@H](O)[C@H]3OP(=O)(O)O[C@H]32)c2cc3c(c(O)c21)OCO3.c1c[nH]cn1 [IMIDAZOLIUM NARCISTATIN] | > 1 µg/mL | 0.24 µg/mL | 0.9 µg/mL | 5800 µg/mL | 0.45 µg/mL | 0.44 µg/mL | 0.38 µg/mL | > 1 µg/mL | –
– | O=C1N[C@@H]2C(=C[C@H](O)[C@H]3OP(=O)([O-])O[C@H]32)c2cc3c(c(O)c21)OCO3.[Li+] [LITHIUM NARCISTATIN] | 0.3 µg/mL | 0.121 µg/mL | 0.31 µg/mL | > 50000 µg/mL | 0.25 µg/mL | 0.13 µg/mL | 0.17 µg/mL | 0.26 µg/mL | –
– | O=C1N[C@@H]2C(=C[C@H](O)[C@H]3OP(=O)([O-])O[C@H]32)c2cc3c(c([O-])c21)OCO3.[Mg+2] [MAGNESIUM NARCISTATIN] | 0.29 µg/mL | 0.17 µg/mL | 0.25 µg/mL | < 1500 µg/mL | 0.19 µg/mL | 0.1 µg/mL | 0.14 µg/mL | 0.31 µg/mL | –
– | C1COCCN1.O=C1N[C@@H]2C(=C[C@H](O)[C@H]3OP(=O)(O)O[C@H]32)c2cc3c(c(O)c21)OCO3 [MORPHOLINIUM NARCISTATIN] | > 1 µg/mL | 0.232 µg/mL | 0.48 µg/mL | > 13000 µg/mL | 0.25 µg/mL | 0.14 µg/mL | 0.24 µg/mL | 0.54 µg/mL | –
– | O=C1N[C@@H]2C(=C[C@H](O)[C@H]3OP(=O)(O)O[C@H]32)c2cc3c(c(O)c21)OCO3 [NARCISTATIN] | 0.47 µg/mL (≈ 1.27 µM) | 0.275 µg/mL (≈ 0.745 µM) | 0.35 µg/mL (≈ 0.948 µM) | 4000 µg/mL (≈ 10800 µM) | 0.33 µg/mL (≈ 0.894 µM) | 0.16 µg/mL (≈ 0.433 µM) | 0.22 µg/mL (≈ 0.596 µM) | 0.53 µg/mL (≈ 1.44 µM) | –
– | C1CNCCN1.O=C1N[C@@H]2C(=C[C@H](O)[C@H]3OP(=O)(O)O[C@H]32)c2cc3c(c(O)c21)OCO3 [PIPERAZINIUM NARCISTATIN] | 0.24 µg/mL | 0.0378 µg/mL | 0.17 µg/mL | 1900 µg/mL | 0.1 µg/mL | 0.032 µg/mL | 0.099 µg/mL | 0.22 µg/mL | –
– | O=C1N[C@@H]2C(=C[C@H](O)[C@H]3OP(=O)([O-])O[C@H]32)c2cc3c(c(O)c21)OCO3.[K+] [POTASSIUM NARCISTATIN] | 0.67 µg/mL | 0.242 µg/mL | 0.4 µg/mL | 11000 µg/mL | 0.36 µg/mL | 0.26 µg/mL | 0.19 µg/mL | 0.56 µg/mL | –
– | O=C1N[C@@H]2C(=C[C@H](O)[C@H]3OP(=O)(O)O[C@H]32)c2cc3c(c(O)c21)OCO3.c1ccncc1 [PYRIDINIUM NARCISTATIN] | 0.27 µg/mL | 0.191 µg/mL | 0.27 µg/mL | – | 0.22 µg/mL | 0.17 µg/mL | 0.15 µg/mL | 0.34 µg/mL | –
– | C=C[C@@H]1CN2CC[C@@H]1C[C@H]2[C@@H](O)c1ccnc2ccc(OC)cc12.O=C1N[C@@H]2C(=C[C@H](O)[C@H]3OP(=O)(O)O[C@H]32)c2cc3c(c(O)c21)OCO3 [QUINIDINIUM NARCISTATIN] | 0.77 µg/mL | 0.271 µg/mL | 0.5 µg/mL | – | 0.31 µg/mL | 0.22 µg/mL | 0.25 µg/mL | 0.58 µg/mL | –
– | C=C[C@@H]1CN2CC[C@@H]1C[C@@H]2[C@H](O)c1ccnc2ccc(OC)cc12.O=C1N[C@@H]2C(=C[C@H](O)[C@H]3OP(=O)(O)O[C@H]32)c2cc3c(c(O)c21)OCO3 [QUININIUM NARCISTATIN] | 0.17 µg/mL | 0.0342 µg/mL | 0.12 µg/mL | – | 0.051 µg/mL | 0.013 µg/mL | 0.045 µg/mL | 0.12 µg/mL | –
– | O=C1N[C@@H]2C(=C[C@H](O)[C@H]3OP(=O)([O-])O[C@H]32)c2cc3c(c(O)c21)OCO3.[Na+] [SODIUM NARCISTATIN] | > 1 µg/mL | 0.255 µg/mL | 0.56 µg/mL | 60000 µg/mL | 0.32 µg/mL | 0.12 µg/mL | 0.23 µg/mL | 0.45 µg/mL | –
– | O=C1N[C@@H]2C(=C[C@H](O)[C@H]3OP(=O)([O-])O[C@H]32)c2cc3c(c(O)c21)OCO3.O=C1N[C@@H]2C(=C[C@H](O)[C@H]3OP(=O)([O-])O[C@H]32)c2cc3c(c(O)c21)OCO3.[Zn+2] [ZINC NARCISTATIN] | 0.21 µg/mL | 0.0287 µg/mL | 0.14 µg/mL | 1700 µg/mL | 0.069 µg/mL | 0.016 µg/mL | 0.053 µg/mL | 0.16 µg/mL | –
< 3000 µg/mL | MANGANESE NARCISTATIN [listing 1 of 2 here] | – | – | – | – | – | – | – | – | –
– | MANGANESE NARCISTATIN [listing 2 of 2 here] | 0.15 µg/mL | – | 0.07 µg/mL | – | 0.049 µg/mL | 0.034 µg/mL | 0.04 µg/mL | 0.13 µg/mL | 4.27 ×10⁻² µg/ml
